Test [1] has as its target T1, human D2R/β-arrestin (Homo sapiens (Human), UniProt P14416). Briefly: Gi/cAMP agonist assay (Lance Ultra cAMP, Forskolin). The class given is cell-based. The settings on record: CHO-K1 cell line expressing human D2R/β-arrestin. A digest of the protocol:
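Read-out was Lance Ultra competitive TR-FRET (Eu-cAMP tracer plus ULight-anti-cAMP) following forskolin-induced cAMP production. Before forskolin stimulation, compounds were pin-transferred onto the seeded cells for 10 min at 37 °C.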

For test [2], the target named is T1, human D2R/β-arrestin. Briefly: β-Arrestin agonist assay (PathHunter). The class given is cell-based. To be noted: CHO-K1 cell line expressing human D2R/β-arrestin. The method, boiled down: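 Readout follows addition of Buffer:Emerald II:Galactor-Star reagent (19:5:1) to agonist-treated plates, measured as luminescence or fluorescence.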
Test [3] has as its target T1, human D2R/β-arrestin. The settings on record: read-out: cAMP Antagonist.
Test [4] addresses T1, human D2R/β-arrestin. The settings on record: read-out: β-arrestin Antagonist.
Where [5] appears, read: CHO-K1 cell line expressing human D2R/β-arrestin, quinpirole used as agonist.

Read-outs that look alike come from different tables or passages of the source.

T1 sequence (P14416 whole entry): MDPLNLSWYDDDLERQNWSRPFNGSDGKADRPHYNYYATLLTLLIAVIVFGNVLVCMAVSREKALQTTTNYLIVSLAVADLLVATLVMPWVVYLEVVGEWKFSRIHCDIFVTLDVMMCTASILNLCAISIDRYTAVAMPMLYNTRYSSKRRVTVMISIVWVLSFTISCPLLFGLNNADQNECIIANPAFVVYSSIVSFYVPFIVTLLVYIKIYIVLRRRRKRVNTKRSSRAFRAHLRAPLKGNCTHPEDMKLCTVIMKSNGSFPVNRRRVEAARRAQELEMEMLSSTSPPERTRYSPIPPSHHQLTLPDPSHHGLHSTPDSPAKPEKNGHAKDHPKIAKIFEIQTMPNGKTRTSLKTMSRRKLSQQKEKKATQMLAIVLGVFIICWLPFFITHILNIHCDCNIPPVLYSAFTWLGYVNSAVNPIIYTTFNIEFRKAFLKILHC

The EC50 is the midpoint of the concentration-response curve. As to `O=C(NC(c1ccc(Cl)cc1)c1ccccn1)C1CCN(CCOc2cc(F)ccc2F)CC1` (single isomer, unassigned) [Compound 14a], the EC50 was less than 100 nM at human D2R/β-arrestin [1] and 100 to 1000 nM on human D2R/β-arrestin [2]. Also, the IC50 was more than 30000 nM at human D2R/β-arrestin [3] and 1000 to 10000 nM on human D2R/β-arrestin [4].

For the compound `O=C(NC(c1ccc(Cl)cc1)c1ccccn1)C1CCN(CCOc2cc(F)ccc2F)CC1` (single isomer, unassigned) [Compound 14b], the EC50 at human D2R/β-arrestin [1] and at human D2R/β-arrestin [2] was more than 30000 nM in each case. Besides, the values for the IC50 at human D2R/β-arrestin [3] and at human D2R/β-arrestin [4] were 1000 to 10000 nM and 100 to 1000 nM, respectively.

As to `O=C(NC(c1ccc(Cl)cc1)c1ccccn1)C1CCN(CCOc2ccc3cccnc3c2)CC1` (single isomer, unassigned) [Compound 16a], the EC50 at human D2R/β-arrestin [1] is less than 100 nM; on human D2R/β-arrestin [2], 1000 to 10000 nM. In addition, the IC50 at human D2R/β-arrestin [3] and on human D2R/β-arrestin [4] was more than 30000 nM each time.

On to `O=C(NC(c1ccc(Cl)cc1)c1ccccn1)C1CCN(CCOc2ccc3cccnc3c2)CC1` (single isomer, unassigned) [Compound 16b], for which the EC50 at human D2R/β-arrestin [1] was 1000 to 10000 nM; on human D2R/β-arrestin [2] it was more than 30000 nM. The IC50 at human D2R/β-arrestin [3] and at human D2R/β-arrestin [4] was more than 30000 nM each time.

On to `COc1cccc(C(NC(=O)C2CCN(CCOc3ccccc3F)CC2)c2ccccn2)c1` (single isomer, unassigned) [Compound 22a, 1-(2-(2-fluorophenoxy)ethyl)-N-((3-methoxyphenyl)(pyridin-2-yl)methyl) piperidine-4-carboxamide], for which the results for the EC50 on human D2R/β-arrestin [1] and at human D2R/β-arrestin [2] were 10000 to 30000 nM and more than 30000 nM, respectively. Further, the IC50 on human D2R/β-arrestin [3] and at human D2R/β-arrestin [4] was 100 to 1000 nM in each case.

With `O=C(NC(c1ccc(Cl)cc1)c1ccccc1F)C1CCN(CCOc2ccccc2)CC1` (single isomer, unassigned) [Compound 40a, N((4-chlorophenyl)(2-fluorophenyl)methyl)-1-(2-phenoxyethyl) piperidine-4-carboxamide], the EC50 on human D2R/β-arrestin [1] and on human D2R/β-arrestin [2] was more than 30000 nM throughout. Further, the IC50 at human D2R/β-arrestin [3] and at human D2R/β-arrestin [4] was 100 to 1000 nM throughout.

Take `O=C(NC(c1ccc(Cl)cc1)c1ccccc1F)C1CCN(CCOc2ccccc2)CC1` (single isomer, unassigned) [Compound 40b, N((4-chlorophenyl)(2-fluorophenyl)methyl)-1-(2-phenoxyethyl) piperidine-4-carboxamide]: the EC50 is 1000 to 10000 nM at human D2R/β-arrestin [1] and more than 30000 nM at human D2R/β-arrestin [2]. Also, the figures for the IC50 at human D2R/β-arrestin [3] and at human D2R/β-arrestin [4] were more than 30000 nM and 1000 to 10000 nM, respectively.

As for `O=C(NC(c1ccc(F)cc1)c1ccc(Cl)cc1)C1CCN(CCOc2ccccc2)CC1` (single isomer, unassigned) [Compound 42a], the EC50 on human D2R/β-arrestin [1] was 100 to 1000 nM; at human D2R/β-arrestin [2], more than 30000 nM. Moreover, the IC50 on human D2R/β-arrestin [3] and on human D2R/β-arrestin [4] was 100 to 1000 nM in each case.

Take `O=C(NC(c1ccc(F)cc1)c1ccc(Cl)cc1)C1CCN(CCOc2ccccc2)CC1` (single isomer, unassigned) [Compound 42b]: the 50% effective concentration (EC50) was 10000 to 30000 nM on human D2R/β-arrestin [1] and more than 30000 nM on human D2R/β-arrestin [2]. For the same compound, the IC50 at human D2R/β-arrestin [3] and on human D2R/β-arrestin [4] was 1000 to 10000 nM throughout.

For `O=C(NC(c1ccccc1)c1ccc(F)cc1)C1CCN(CCOc2ccccc2)CC1` (single isomer, unassigned) [Compound 45a], the EC50 on human D2R/β-arrestin [1] and at human D2R/β-arrestin [2] was more than 30000 nM in each case. For the same compound, the IC50 at human D2R/β-arrestin [3] and at human D2R/β-arrestin [4] was 100 to 1000 nM throughout.

Take `O=C(NC(c1ccccc1)c1ccc(F)cc1)C1CCN(CCOc2ccccc2)CC1` (single isomer, unassigned) [Compound 45b]: the EC50 at human D2R/β-arrestin [1] is 100 to 1000 nM; on human D2R/β-arrestin [2], more than 30000 nM. For the same compound, the IC50 at human D2R/β-arrestin [3] and on human D2R/β-arrestin [4] was 100 to 1000 nM each time.

Take `O=C(NC(c1ccc(F)cc1)c1ccccn1)C1CCN(CCOc2ccccc2C(F)(F)F)CC1` (single isomer, unassigned) [Compound 52a]: the EC50 at human D2R/β-arrestin [1] and on human D2R/β-arrestin [2] was more than 30000 nM in each case. For the same compound, the IC50 on human D2R/β-arrestin [3] is less than 100 nM; at human D2R/β-arrestin [4] it was 100 to 1000 nM.

For the compound `O=C(NC(c1ccc(F)cc1)c1ccccn1)C1CCN(CCOc2ccccc2C(F)(F)F)CC1` (single isomer, unassigned) [Compound 52b], the EC50 on human D2R/β-arrestin [1] and on human D2R/β-arrestin [2] was more than 30000 nM each time. The IC50 at human D2R/β-arrestin [3] and on human D2R/β-arrestin [4] was 100 to 1000 nM in each case.

In the case of `O=C(NC(c1ccc(F)cc1)c1ccccn1)C1CCN(CCOc2ccccc2Cl)CC1` (single isomer, unassigned) [Compound 53a, 1-(2-(2-chlorophenoxy)ethyl)-N-((4-fluorophenyl)(pyridin-2-yl)methyl) piperidine-4-carboxamide], the 50% effective concentration (EC50) on human D2R/β-arrestin [1] and on human D2R/β-arrestin [2] was more than 30000 nM throughout. In addition, the IC50 on human D2R/β-arrestin [3] and at human D2R/β-arrestin [4] was 100 to 1000 nM in each case.

As to `O=C(NC(c1ccc(F)cc1)c1ccccn1)C1CCN(CCOc2ccccc2Cl)CC1` (single isomer, unassigned) [Compound 53b, 1-(2-(2-chlorophenoxy)ethyl)-N-((4-fluorophenyl)(pyridin-2-yl)methyl) piperidine-4-carboxamide], the EC50 at human D2R/β-arrestin [1] and at human D2R/β-arrestin [2] was more than 30000 nM in each case. The IC50 on human D2R/β-arrestin [3] and on human D2R/β-arrestin [4] was 100 to 1000 nM throughout.

With `O=C(NC(c1ccc(F)cc1)c1ccccn1)C1CCN(CCOc2ccccc2F)CC1` (single isomer, unassigned) [Compound 54a, 1-(2-(2-fluorophenoxy)ethyl)-N-((4-fluorophenyl)(pyridin-2-yl)methyl) piperidine-4-carboxamide], the EC50 at human D2R/β-arrestin [1] and on human D2R/β-arrestin [2] was more than 30000 nM throughout. For the same compound, the IC50 on human D2R/β-arrestin [3] and on human D2R/β-arrestin [4] was less than 100 nM in each case.

With `O=C(NC(c1ccc(F)cc1)c1ccccn1)C1CCN(CCOc2ccccc2F)CC1` (single isomer, unassigned) [Compound 54b, 1-(2-(2-fluorophenoxy)ethyl)-N-((4-fluorophenyl)(pyridin-2-yl)methyl) piperidine-4-carboxamide], the figures for the EC50 at human D2R/β-arrestin [1] and on human D2R/β-arrestin [2] were 100 to 1000 nM and more than 30000 nM, respectively. Also, the figures for the IC50 at human D2R/β-arrestin [3] and on human D2R/β-arrestin [4] were more than 30000 nM and 1000 to 10000 nM, respectively.

Regarding `CC1(C(=O)NC(c2ccc(F)cc2)c2ccccn2)CCN(CCOc2ccccc2C(F)(F)F)CC1` (single isomer, unassigned) [Compound 70a, N-((4-fluorophenyl)(pyridin-2-yl)methyl)-4-methyl-1-(2-(2-(trifluoromethyl)phenoxy)ethyl) piperidine-4-carboxamide], the EC50 on human D2R/β-arrestin [1] and on human D2R/β-arrestin [2] was more than 30000 nM in each case. Moreover, the IC50 on human D2R/β-arrestin [3] and at human D2R/β-arrestin [4] was less than 100 nM throughout.

For `Fc1ccc(C(NCC2CCN(CCOc3ccccc3)CC2)c2ccccn2)cc1` (single isomer, unassigned) [Compound 78b, 1-(4-fluorophenyl)-N-((1-(2-phenoxyethyl)piperidin-4-yl)methyl)-1-(pyridin-2-yl)methanamine], the EC50 on human D2R/β-arrestin [1] and on human D2R/β-arrestin [2] was more than 30000 nM throughout. In addition, the IC50 at human D2R/β-arrestin [3] (setting [5]) and at human D2R/β-arrestin [4] (setting [5]) was 1000 to 10000 nM throughout.

On to `O=C(NC(c1ccc2c(c1)OCO2)c1ccccn1)C1CCN(CCOc2ccccc2F)CC1` (single isomer, unassigned) [Compound 95a, N-(benzo[d][1,3]dioxol-5-yl(pyridin-2-yl)methyl)-1-(2-(2-fluorophenoxy)ethyl) piperidine-4-carboxamide], for which the EC50 on human D2R/β-arrestin [1] and at human D2R/β-arrestin [2] was more than 30000 nM in each case. Also, the IC50 at human D2R/β-arrestin [3] and on human D2R/β-arrestin [4] was 100 to 1000 nM throughout.

Consider `O=C(NC(c1ccc(Cl)cc1)c1ccccc1F)C1CCN(CCOc2ccccc2F)CC1` (single isomer, unassigned) [Compound 96a, N-((4-chlorophenyl)(2-fluorophenyl)methyl)-1-(2-(2-fluorophenoxy)ethyl) piperidine-4-carboxamide], for which the EC50 at human D2R/β-arrestin [1] was 1000 to 10000 nM; at human D2R/β-arrestin [2] it was more than 30000 nM. In addition, the IC50 on human D2R/β-arrestin [3] is more than 30000 nM; at human D2R/β-arrestin [4] it was 1000 to 10000 nM.

Take `O=C(NC(c1ccc(Cl)cc1)c1ccccc1F)C1CCN(CCOc2ccccc2F)CC1` (single isomer, unassigned) [Compound 96b, N-((4-chlorophenyl)(2-fluorophenyl)methyl)-1-(2-(2-fluorophenoxy)ethyl) piperidine-4-carboxamide]: the EC50 on human D2R/β-arrestin [1] and on human D2R/β-arrestin [2] was more than 30000 nM in each case. The IC50 at human D2R/β-arrestin [3] and at human D2R/β-arrestin [4] was 100 to 1000 nM each time.

For `c1ccc(OCCN2CCC(CNC(c3ccc4c(c3)OCO4)c3ccccn3)CC2)cc1` (single isomer, unassigned) [Compound 102b, 1-(benzo[d][1,3]dioxol-5-yl)-N-((1-(2-phenoxyethyl)piperidin-4-yl)methyl)-1-(pyridin-2-yl)methanamine], the figures for the concentration giving a half-maximal response (EC50) at human D2R/β-arrestin [1] and on human D2R/β-arrestin [2] were 1000 to 10000 nM and more than 30000 nM, respectively. Besides, the IC50 at human D2R/β-arrestin [3] (setting [5]) and on human D2R/β-arrestin [4] (setting [5]) was 1000 to 10000 nM each time.

For the compound `O=C(NC(c1cccc(OC(F)(F)F)c1)c1ccccn1)C1CCN(CCOc2ccccc2)CC1` (single isomer, unassigned) [Compound 118a, 1-(2-phenoxyethyl)-N-(pyridin-2-yl(3-(trifluoromethoxy)phenyl)methyl) piperidine-4-carboxamide], the concentration for a half-maximal effect (EC50) at human D2R/β-arrestin [1] was 10000 to 30000 nM; on human D2R/β-arrestin [2], more than 30000 nM. Also, the IC50 on human D2R/β-arrestin [3] was more than 30000 nM; at human D2R/β-arrestin [4], 10000 to 30000 nM.

Take `O=C(NC(c1ccc2c(c1)OC(F)(F)O2)c1ccccn1)C1CCN(CCOc2ccccc2)CC1` (single isomer, unassigned) [Compound 119a]: the EC50 on human D2R/β-arrestin [1] and at human D2R/β-arrestin [2] was more than 30000 nM in each case. Moreover, the IC50 at human D2R/β-arrestin [3] and on human D2R/β-arrestin [4] was 1000 to 10000 nM each time.

The values above are taken from patent publication US10752588B2 (The Broad Institute, Inc., priority 2014, dated 2020).
